ChEMBL document CHEMBL3868610, “Novel bicyclo[3.1.0]hexane analogs as antagonists of metabotropic glutamate 2/3 receptors for the treatment of depression” (Bioorg Med Chem Lett, 2016)
Calls of active or inactive are those of the source. The rule behind the calls is not given here.

Tests used:
[1] = Drug metabolism in rat microsomes at 4 uM after 30 mins; format: ADME, Microsome; details: read-out: Drug metabolism
[2] = molecular target: T1, Metabotropic glutamate receptor 4 (Homo sapiens, UniProt Q14833); assay: Agonist activity at recombinant human mGlu4 receptor expressed in hamster AV12 cells co-expressing human EAAT1/Galpha1s assessed as increase in Ca2+ flux by Fluo-3-AM dye based FLIPR assay; format: functional, cell-based
T1 sequence (Q14833 whole entry): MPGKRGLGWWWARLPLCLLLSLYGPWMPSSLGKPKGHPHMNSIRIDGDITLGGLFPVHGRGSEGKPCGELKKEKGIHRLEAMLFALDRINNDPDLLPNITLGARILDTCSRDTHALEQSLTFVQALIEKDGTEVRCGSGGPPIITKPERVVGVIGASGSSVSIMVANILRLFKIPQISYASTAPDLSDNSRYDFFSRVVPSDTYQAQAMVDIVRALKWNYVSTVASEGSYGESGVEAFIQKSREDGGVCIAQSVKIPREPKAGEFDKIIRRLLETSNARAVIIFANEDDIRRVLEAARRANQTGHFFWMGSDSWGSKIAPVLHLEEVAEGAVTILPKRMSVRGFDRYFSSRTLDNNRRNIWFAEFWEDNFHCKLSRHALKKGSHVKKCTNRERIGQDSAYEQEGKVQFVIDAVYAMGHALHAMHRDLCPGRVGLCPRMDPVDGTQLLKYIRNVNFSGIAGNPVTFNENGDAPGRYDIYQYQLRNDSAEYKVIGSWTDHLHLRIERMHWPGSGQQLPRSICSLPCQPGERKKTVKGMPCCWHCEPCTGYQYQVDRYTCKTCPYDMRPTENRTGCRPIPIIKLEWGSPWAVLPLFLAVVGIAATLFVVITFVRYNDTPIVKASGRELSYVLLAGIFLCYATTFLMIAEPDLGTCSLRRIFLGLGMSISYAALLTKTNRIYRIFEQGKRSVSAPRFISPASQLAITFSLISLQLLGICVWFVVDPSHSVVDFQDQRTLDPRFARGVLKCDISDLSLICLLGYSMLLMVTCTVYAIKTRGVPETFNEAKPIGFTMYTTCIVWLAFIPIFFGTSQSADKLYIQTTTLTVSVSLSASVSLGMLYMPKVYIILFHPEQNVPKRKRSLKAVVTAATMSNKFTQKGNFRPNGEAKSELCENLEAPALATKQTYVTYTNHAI

[3] = Tmax in rat at 10 mg/kg, ip; format: ADME, organism-based; details: in vivo
[4] = Cmax in rat at 1 mg/kg, iv; format: ADME, organism-based; set-up: dose 1 mg/kg, route intravenous; details: in vivo
[5] = Antidepressant activity in rat assessed as increase in wakefulness at 3 to 10 mg/kg, ip
[6] = molecular target: T1, Metabotropic glutamate receptor 4; assay: Antagonist activity at recombinant human mGlu4 receptor expressed in hamster AV12 cells co-expressing human EAAT1/Galpha1s assessed as inhibition of Ca2+ flux by Fluo-3-AM dye based FLIPR assay; format: functional, cell-based
[7] = Plasma concentration in NIH Swiss Webster mouse at 0.3 mg/kg, ip at 30 mins; format: ADME, organism-based
[8] = Unbound fraction in mouse; format: ADME, organism-based; details: in vivo
[9] = Antidepressant activity in rat EEG model assessed as accumulated wake time at 3 mg/kg, ip measured over 7 hrs relative to control; format: functional, organism-based
[10] = molecular target: T2, Metabotropic glutamate receptor 2 (Homo sapiens, UniProt Q14416); assay: Antagonist activity at recombinant human mGlu2 receptor expressed in hamster AV12 cells co-expressing human EAAT1 assessed as reduction of DCG-4-inhibited forskolin-stimulated cAMP formation after 20 mins by HTRF assay; format: functional, cell-based
[11] = Permeability from apical side to basolateral side in MDCK cells at 20 uM; format: ADME, cell-based, Canis lupus familiaris; details: dog
[12] = Antidepressant activity in ip dosed rat EEG model assessed as accumulated wake time measured over 7 hrs relative to control; format: functional, organism-based
[13] = Plasma concentration in NIH Swiss Webster mouse at 1 mg/kg, ip at 30 mins; format: ADME, organism-based
[14] = Antidepressant activity in NIH Swiss Webster mouse assessed as immobility time at 1 mg/kg, ip administered 30 mins prior to test measured during last 4 mins of the 6 mins observation time by forced swim test (reference value: 142 sec); format: functional, organism-based
[15] = Antidepressant activity in NIH Swiss Webster mouse assessed as immobility time at 3 mg/kg, ip administered 30 mins prior to test measured during last 4 mins of the 6 mins observation time by forced swim test (reference value: 142 sec); format: functional, organism-based
[16] = molecular target: T2, Metabotropic glutamate receptor 2; assay: Antagonist activity at recombinant human mGlu2 receptor expressed in hamster AV12 cells assessed as inhibition of DCG-4-inhibited forskolin-stimulated cAMP formation up to 25 uM after 20 min by HTRF assay relative to control; format: functional, cell-based
Target sequence in this assay (Q14416 19-872 limits assumed): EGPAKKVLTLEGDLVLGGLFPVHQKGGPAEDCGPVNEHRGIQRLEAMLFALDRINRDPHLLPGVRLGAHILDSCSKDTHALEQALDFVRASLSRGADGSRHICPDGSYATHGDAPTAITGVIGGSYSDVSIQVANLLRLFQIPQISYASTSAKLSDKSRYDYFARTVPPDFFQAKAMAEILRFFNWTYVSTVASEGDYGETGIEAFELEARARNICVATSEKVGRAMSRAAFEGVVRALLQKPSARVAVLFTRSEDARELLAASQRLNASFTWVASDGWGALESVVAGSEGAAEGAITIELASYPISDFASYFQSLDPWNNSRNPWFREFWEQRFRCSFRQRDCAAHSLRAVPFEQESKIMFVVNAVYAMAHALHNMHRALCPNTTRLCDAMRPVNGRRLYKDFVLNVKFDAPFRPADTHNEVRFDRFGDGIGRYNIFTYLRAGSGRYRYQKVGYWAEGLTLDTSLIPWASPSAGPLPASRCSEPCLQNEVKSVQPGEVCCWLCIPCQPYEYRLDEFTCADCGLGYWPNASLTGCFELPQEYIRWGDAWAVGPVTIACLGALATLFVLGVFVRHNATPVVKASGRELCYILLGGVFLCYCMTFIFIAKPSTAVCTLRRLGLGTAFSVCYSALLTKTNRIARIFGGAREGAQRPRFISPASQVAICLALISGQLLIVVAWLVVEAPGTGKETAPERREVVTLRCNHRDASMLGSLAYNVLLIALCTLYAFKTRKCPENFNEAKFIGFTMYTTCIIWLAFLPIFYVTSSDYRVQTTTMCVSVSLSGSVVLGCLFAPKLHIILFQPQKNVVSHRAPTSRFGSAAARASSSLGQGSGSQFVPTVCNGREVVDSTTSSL

[17] = Ratio of drug level in brain to plasma in mouse at 10 mg/kg, ip after 30 mins; format: ADME, organism-based; details: read-out: BPR
[18] = Drug metabolism in human microsomes at 4 uM after 30 mins; format: ADME, Microsome; details: read-out: Drug metabolism
CYP3A4 = CYP3A4 (Homo sapiens, UniProt P08684); assay: Inhibition of human CYP3A4 at 10 uM; format: ADME
CYP3A4, sequence (P08684 whole entry): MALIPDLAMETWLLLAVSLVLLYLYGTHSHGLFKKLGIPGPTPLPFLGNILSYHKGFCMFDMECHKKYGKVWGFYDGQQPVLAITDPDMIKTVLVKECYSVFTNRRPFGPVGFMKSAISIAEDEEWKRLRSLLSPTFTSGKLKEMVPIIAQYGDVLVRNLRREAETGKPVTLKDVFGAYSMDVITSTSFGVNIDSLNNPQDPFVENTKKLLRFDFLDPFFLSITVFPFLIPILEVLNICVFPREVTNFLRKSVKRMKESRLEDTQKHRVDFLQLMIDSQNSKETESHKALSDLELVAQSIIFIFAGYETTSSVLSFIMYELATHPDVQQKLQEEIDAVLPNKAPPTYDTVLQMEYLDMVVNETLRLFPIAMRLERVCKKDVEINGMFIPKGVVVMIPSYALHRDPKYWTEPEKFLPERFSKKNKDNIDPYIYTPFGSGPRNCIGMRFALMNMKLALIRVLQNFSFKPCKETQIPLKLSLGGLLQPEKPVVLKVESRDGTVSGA

[19] = molecular target: Metabotropic glutamate receptor 8 (Homo sapiens, UniProt O00222); assay: Agonist activity at recombinant human mGlu8 receptor expressed in hamster AV12 cells co-expressing human EAAT1 assessed as induction of forskolin-stimulated cAMP formation after 20 mins by HTRF assay; format: functional, cell-based
[20] = Cmax in rat at 10 mg/kg, ip; format: ADME, organism-based; set-up: dose 10 mg/kg, route intraperitoneal; details: in vivo
[21] = Volume of distribution at steady state in rat at 1 mg/kg, iv; format: ADME, organism-based; details: in vivo, read-out: Vdss
[22] = Half life in rat at 10 mg/kg, ip; format: ADME, organism-based; details: in vivo
[23] = molecular target: Metabotropic glutamate receptor 3 (Homo sapiens, UniProt Q14832); assay: Antagonist activity at recombinant human mGlu3 receptor expressed in hamster AV12 cells co-expressing human EAAT1 assessed as reduction of DCG-4-inhibited forskolin-stimulated cAMP formation after 20 mins by HTRF assay; format: functional, cell-based
[24] = Antidepressant activity in NIH Swiss Webster mouse assessed as immobility time at 0.3 mg/kg, ip administered 30 mins prior to test measured during last 4 mins of the 6 mins observation time by forced swim test (reference value: 142 sec); format: functional, organism-based
[25] = molecular target: Metabotropic glutamate receptor 7 (Homo sapiens, UniProt Q14831); assay: Antagonist activity at recombinant human mGlu7 receptor expressed in hamster AV12 cells co-expressing human EAAT1/Galpha1s assessed as inhibition of Ca2+ flux by Fluo-3-AM dye based FLIPR assay; format: functional, cell-based
[26] = Half life in rat at 1 mg/kg, iv; format: ADME, organism-based; details: in vivo
[27] = molecular target: T3, Metabotropic glutamate receptor 1 (Homo sapiens, UniProt Q13255); assay: Antagonist activity at recombinant human mGlu1 receptor expressed in hamster AV12 cells coexpressing human EAAT1/Galpha1s assessed as inhibition of Ca2+ flux by Fluo-3-AM dye based FLIPR assay; format: functional, cell-based
T3 sequence (Q13255 whole entry): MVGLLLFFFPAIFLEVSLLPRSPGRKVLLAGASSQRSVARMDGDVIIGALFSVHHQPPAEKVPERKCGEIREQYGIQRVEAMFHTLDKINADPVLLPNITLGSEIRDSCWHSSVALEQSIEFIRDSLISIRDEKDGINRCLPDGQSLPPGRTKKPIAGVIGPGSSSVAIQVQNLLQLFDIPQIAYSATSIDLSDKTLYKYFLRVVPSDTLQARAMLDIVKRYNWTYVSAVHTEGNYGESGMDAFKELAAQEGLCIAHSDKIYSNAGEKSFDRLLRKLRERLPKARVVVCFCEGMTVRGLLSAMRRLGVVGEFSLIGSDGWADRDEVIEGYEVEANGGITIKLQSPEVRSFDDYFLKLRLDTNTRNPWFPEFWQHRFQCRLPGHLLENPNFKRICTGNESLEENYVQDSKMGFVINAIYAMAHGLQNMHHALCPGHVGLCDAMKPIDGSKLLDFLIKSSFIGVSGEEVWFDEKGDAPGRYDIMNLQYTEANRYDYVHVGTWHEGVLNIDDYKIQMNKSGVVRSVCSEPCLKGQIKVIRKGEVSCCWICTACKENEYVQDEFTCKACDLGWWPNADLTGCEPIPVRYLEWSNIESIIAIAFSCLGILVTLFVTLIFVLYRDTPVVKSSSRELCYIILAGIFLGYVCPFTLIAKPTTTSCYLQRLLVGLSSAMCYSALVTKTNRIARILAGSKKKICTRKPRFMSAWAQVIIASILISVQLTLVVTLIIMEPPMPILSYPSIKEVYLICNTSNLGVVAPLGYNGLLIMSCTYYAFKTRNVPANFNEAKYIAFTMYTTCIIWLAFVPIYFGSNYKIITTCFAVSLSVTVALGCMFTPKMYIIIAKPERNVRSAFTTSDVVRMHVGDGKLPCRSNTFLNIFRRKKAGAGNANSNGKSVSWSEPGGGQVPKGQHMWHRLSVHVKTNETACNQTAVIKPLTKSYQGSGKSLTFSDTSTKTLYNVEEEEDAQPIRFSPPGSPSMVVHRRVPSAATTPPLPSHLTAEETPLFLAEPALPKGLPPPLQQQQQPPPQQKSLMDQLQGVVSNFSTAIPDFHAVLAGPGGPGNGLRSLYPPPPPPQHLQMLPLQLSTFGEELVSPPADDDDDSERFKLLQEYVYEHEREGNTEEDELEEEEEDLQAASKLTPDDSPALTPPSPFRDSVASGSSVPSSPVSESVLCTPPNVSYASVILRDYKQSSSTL

[28] = molecular target: Metabotropic glutamate receptor 5 (Homo sapiens, UniProt P41594); assay: Agonist activity at recombinant human mGlu5 receptor expressed in hamster AV12 cells co-expressing human EAAT1/Galpha1s assessed as increase in Ca2+ flux by Fluo-3-AM dye based FLIPR assay; format: functional, cell-based
[29] = Drug uptake in NIH Swiss Webster mouse brain at 1 mg/kg, ip at 30 mins; format: ADME, organism-based; details: read-out: Drug uptake
[30] = Antidepressant activity in ip dosed NIH Swiss Webster mouse assessed as reduction in immobility time administered 30 mins prior to evaluation measured on the last 4 mins of the 6 mins observation time by forced swim test; format: functional, organism-based
CYP2D6 = CYP2D6 (Homo sapiens, UniProt P10635); assay: Inhibition of human CYP2D6 at 10 uM; format: ADME
CYP2D6, sequence (P10635 whole entry): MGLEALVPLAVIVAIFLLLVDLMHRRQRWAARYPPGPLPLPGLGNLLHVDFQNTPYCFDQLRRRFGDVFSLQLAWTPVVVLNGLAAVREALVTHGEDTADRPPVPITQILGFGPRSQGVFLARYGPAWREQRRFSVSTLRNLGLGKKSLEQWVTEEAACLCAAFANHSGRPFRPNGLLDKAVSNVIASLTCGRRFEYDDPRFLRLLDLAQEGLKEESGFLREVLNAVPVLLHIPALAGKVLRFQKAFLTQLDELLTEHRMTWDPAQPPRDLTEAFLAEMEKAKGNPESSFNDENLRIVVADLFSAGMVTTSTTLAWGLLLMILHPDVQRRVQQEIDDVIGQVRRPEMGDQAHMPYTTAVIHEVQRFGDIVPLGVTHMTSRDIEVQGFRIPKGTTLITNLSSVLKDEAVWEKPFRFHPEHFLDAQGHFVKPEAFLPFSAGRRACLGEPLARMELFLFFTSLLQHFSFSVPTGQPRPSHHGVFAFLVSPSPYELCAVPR

[31] = molecular target: T3, Metabotropic glutamate receptor 1; assay: Agonist activity at recombinant human mGlu1 receptor expressed in hamster AV12 cells co-expressing human EAAT1/Galpha1s assessed as increase in Ca2+ flux by Fluo-3-AM dye based FLIPR assay; format: functional, cell-based
Rattus norvegicus [32] = assay: Toxicity in rat assessed as increase in locomotive activity at 3 to 10 mg/kg, ip; format: organism-based; details: in vivo
[33] = Antidepressant activity in rat EEG model assessed as accumulated wake time at 10 mg/kg, ip measured over 7 hrs relative to control; format: functional, organism-based
[34] = AUC (0 to 24 hrs) in rat at 5 mg/kg, po; format: ADME, organism-based; set-up: time < 24 hr, dose 5 mg/kg, route oral; details: in vivo
Rattus norvegicus [35] = assay: Toxicity in rat assessed as NREM sleep at 3 to 10 mg/kg, ip; format: organism-based; details: in vivo
[36] = molecular target: T2, Metabotropic glutamate receptor 2; assay: Displacement of [3H]-LY459477 from human mGlu2 receptor expressed in hamster AV12 cell membranes co-expressing human EAAT1 after 90 mins by liquid scintillation counting method
Target sequence in this assay (Q14416 whole entry): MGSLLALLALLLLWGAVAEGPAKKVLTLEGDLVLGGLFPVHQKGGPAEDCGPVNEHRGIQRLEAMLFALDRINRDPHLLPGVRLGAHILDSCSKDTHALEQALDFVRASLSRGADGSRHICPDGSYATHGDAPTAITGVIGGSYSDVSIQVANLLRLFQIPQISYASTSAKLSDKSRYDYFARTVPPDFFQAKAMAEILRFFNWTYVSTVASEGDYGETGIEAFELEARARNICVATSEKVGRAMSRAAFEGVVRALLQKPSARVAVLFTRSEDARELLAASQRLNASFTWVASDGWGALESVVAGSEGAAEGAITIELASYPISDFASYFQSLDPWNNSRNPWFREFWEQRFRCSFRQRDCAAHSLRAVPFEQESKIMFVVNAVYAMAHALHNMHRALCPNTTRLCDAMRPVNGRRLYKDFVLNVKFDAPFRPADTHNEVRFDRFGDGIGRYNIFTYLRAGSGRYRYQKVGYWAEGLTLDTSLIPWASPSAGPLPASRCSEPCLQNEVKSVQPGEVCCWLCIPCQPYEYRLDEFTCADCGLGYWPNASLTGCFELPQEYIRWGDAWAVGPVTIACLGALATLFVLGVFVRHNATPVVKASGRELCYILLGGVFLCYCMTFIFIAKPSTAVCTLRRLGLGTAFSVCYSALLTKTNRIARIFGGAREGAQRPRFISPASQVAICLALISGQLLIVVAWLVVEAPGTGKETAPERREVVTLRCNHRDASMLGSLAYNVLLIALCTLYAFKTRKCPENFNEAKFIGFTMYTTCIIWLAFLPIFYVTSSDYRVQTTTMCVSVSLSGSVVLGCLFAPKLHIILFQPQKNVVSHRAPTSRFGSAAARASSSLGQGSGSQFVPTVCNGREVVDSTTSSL

[37] = Unbound fraction in rat plasma at 1 uM; format: ADME, cell-free
[38] = Cmax in rat at 5 mg/kg, po; format: ADME, organism-based; set-up: dose 5 mg/kg, route oral; details: in vivo
[39] = molecular target: T2, Metabotropic glutamate receptor 2; assay: Agonist activity at recombinant human mGlu2 receptor expressed in hamster AV12 cells co-expressing human EAAT1 assessed as increase in forskolin-stimulated cAMP formation up to 25 uM after 20 mins by HTRF assay; format: functional, cell-based
Target sequence in this assay (Q14416 whole entry): as above

N[C@]1(C(=O)O)[C@@H]2[C@@H](C(=O)O)[C@@H]2[C@H](O)[C@H]1OCc1ccc(Cl)c(Cl)c1
metabolised at 0.5 h, 4 µM [1]: < 20%
EC50 [2]: > 25 µM
Tmax [3]: 0.38 h
Cmax [4]: 33.9 µM
Activity [5]: Active
IC50 [6]: > 12.5 µM
concentration at 0.5 h [7]: 1.29 µM
fraction unbound [8]: 0.56
Activity [9]: Dose-dependent effect
IC50 [10]: 0.046 µM
Imax [10]: > 94%
permeability [11]: 2%
TIME [12]: 2.18 h
concentration at 0.5 h [13]: 4.81 µM
TIME [14]: 0.0272 h
TIME [15]: 0.0167 h
inhibition [16]: Active
Kp at 0.5 h [17]: 0.015
metabolised at 0.5 h, 4 µM [18]: < 20%
inhibition at 10 µM (CYP3A4): < 5%
EC50 [19]: > 50 µM
Cmax [20]: 48.1 µM
Vd [21]: 0.589 L/kg
half-life [22]: 4.48 h
IC50 [23]: 0.0461 µM
Imax [23]: > 94%
TIME [24]: 0.0394 h
IC50 [25]: 10.5 µM
half-life [26]: 4.61 h
IC50 [27]: > 12.5 µM
EC50 [28]: > 25 µM
concentration at 0.5 h [29]: 0.072 µM
ED60 [30]: 0.72 mg/kg
MED [30]: 1 mg/kg
inhibition at 10 µM (CYP2D6): < 5%
EC50 [31]: > 25 µM
Activity (Rattus norvegicus [32]): Non-Toxic
TIME [33]: 0.683 h
AUC [34]: 1.783 µM·h
Activity (Rattus norvegicus [35]): Non-Toxic
Ki [36]: 0.0201 µM
fraction unbound at 1 µM [37]: > 0.4
Cmax [38]: 0.262 µM
EC50 [39]: > 25 µM
